Legend:
Assay type in all cases: functional
Mus musculus [1] = test: Inhibition of DMBA-induced/TPA-promoted carcinogenesis in ICR mouse assessed as mouse bearing papillomas at 85 nmol administered 1 hr before TPA treatment measured after 8 weeks; parameters: scale not given: the % may be the effect or the level left
Mus musculus [2] = test: Inhibition of DMBA-induced/TPA-promoted carcinogenesis in ICR mouse assessed as mouse bearing papillomas at 85 nmol administered 1 hr before TPA treatment measured after 20 weeks; parameters: scale not given: the % may be the effect or the level left
Mus musculus [3] = test: Inhibition of DMBA-induced/TPA-promoted carcinogenesis in ICR mouse assessed as number of skin papillomas per mouse at 85 nmol administered 1 hr before TPA treatment measured after 20 weeks
Mus musculus [4] = test: Inhibition of DMBA-induced/TPA-promoted carcinogenesis in ICR mouse assessed as mouse bearing papillomas at 85 nmol administered 1 hr before TPA treatment measured after 10 weeks; parameters: scale not given: the % may be the effect or the level left
Mus musculus [5] = test: Inhibition of DMBA-induced/TPA-promoted carcinogenesis in ICR mouse assessed as number of skin papillomas per mouse at 85 nmol administered 1 hr before TPA treatment measured after 14 weeks

CC(C)=CCc1c2c(c(O)c3c(=O)c(-c4ccc(O)c(O)c4)coc13)C=CC(C)(C)O2 [AURICULASIN] gave an Activity (Mus musculus [1]) of 13%, an Activity (Mus musculus [2]) of 87% and an Activity (Mus musculus [3]) of 4.9. For the same compound, the Activity (Mus musculus [4]) was 27% and the Activity (Mus musculus [5]) was <3.

Source: ChEMBL document CHEMBL1148156, “Chemical constituents of Millettia taiwaniana: structure elucidation of five new isoflavonoids and their cancer chemopreventive activity” (2004)
